Laboratory results published in ChEMBL document CHEMBL4507311, “Data for DCP probe A-1155463” (2021).

How the values were obtained:
[1] = biological target: 5'-AMP-activated protein kinase catalytic subunit alpha-1 (Homo sapiens) (UniProt Q13131); conditions: Compound concentration 1000.0 nM
[2] = biological target: Dual specificity mitogen-activated protein kinase kinase 5 (Homo sapiens) (UniProt Q13163); conditions: Compound concentration 1000.0 nM
[3] = biological target: Serine/threonine-protein kinase 38 (Homo sapiens) (UniProt Q15208); conditions: Compound concentration 1000.0 nM
[4] = biological target: Serine/threonine-protein kinase OSR1 (Homo sapiens) (UniProt O95747); conditions: Compound concentration 1000.0 nM
Sequence of Serine/threonine-protein kinase OSR1 (Homo sapiens) (O95747 2-527 limits assumed): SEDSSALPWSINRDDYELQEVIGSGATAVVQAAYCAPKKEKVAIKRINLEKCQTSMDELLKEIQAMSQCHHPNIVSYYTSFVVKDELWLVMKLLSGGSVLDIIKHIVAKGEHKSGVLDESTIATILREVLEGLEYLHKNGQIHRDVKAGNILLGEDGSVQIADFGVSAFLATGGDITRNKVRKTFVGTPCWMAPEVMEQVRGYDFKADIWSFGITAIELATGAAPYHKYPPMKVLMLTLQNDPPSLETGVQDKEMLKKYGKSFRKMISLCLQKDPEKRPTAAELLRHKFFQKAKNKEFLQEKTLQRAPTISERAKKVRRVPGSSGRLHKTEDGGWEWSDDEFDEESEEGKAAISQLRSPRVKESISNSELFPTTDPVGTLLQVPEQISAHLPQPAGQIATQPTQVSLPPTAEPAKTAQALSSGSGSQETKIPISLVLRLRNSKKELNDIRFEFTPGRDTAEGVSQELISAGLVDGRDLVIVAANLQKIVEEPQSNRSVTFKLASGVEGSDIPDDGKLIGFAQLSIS

[5] = biological target: Activin receptor type-2A (Homo sapiens) (UniProt P27037); conditions: Compound concentration 1000.0 nM
[6] = biological target: Cyclin-dependent kinase 18 (Homo sapiens) (UniProt Q07002); conditions: Compound concentration 1000.0 nM
[7] = biological target: Serine/threonine-protein kinase tousled-like 1 (Homo sapiens) (UniProt Q9UKI8); conditions: Compound concentration 1000.0 nM
[8] = test system: Tyrosine-protein kinase ABL1 (Homo sapiens), P00519 [F317I]; conditions: Compound concentration 1000.0 nM
[9] = biological target: Receptor-interacting serine/threonine-protein kinase 2 (Homo sapiens) (UniProt O43353); conditions: Compound concentration 1000.0 nM
[10] = test system: Epidermal growth factor receptor (Homo sapiens), P00533 [T790M]; conditions: Compound concentration 1000.0 nM
[11] = biological target: Dual specificity tyrosine-phosphorylation-regulated kinase 1A (Homo sapiens) (UniProt Q13627); conditions: Compound concentration 1000.0 nM
[12] = biological target: T1, Alpha-2B adrenergic receptor (Homo sapiens) (UniProt P18089); conditions: Compound concentration 10.0 uM
T1 sequence (whole entry): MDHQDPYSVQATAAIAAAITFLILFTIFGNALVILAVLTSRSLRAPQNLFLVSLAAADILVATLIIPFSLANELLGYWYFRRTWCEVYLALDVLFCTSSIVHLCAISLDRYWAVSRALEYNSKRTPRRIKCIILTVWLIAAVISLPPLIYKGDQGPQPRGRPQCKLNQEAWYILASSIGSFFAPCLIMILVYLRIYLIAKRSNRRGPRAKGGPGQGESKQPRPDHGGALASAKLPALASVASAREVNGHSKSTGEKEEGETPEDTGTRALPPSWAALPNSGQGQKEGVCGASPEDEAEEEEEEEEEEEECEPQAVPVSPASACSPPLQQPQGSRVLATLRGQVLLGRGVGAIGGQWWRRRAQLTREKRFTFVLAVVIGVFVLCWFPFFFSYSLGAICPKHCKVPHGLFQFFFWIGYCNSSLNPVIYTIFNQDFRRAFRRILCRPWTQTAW

[13] = biological target: Hepatocyte growth factor receptor (Homo sapiens) (UniProt P08581); conditions: Compound concentration 1000.0 nM
[14] = biological target: Protein-tyrosine kinase 2-beta (Homo sapiens) (UniProt Q14289); conditions: Compound concentration 1000.0 nM
[15] = biological target: BDNF/NT-3 growth factors receptor (Homo sapiens) (UniProt Q16620); conditions: Compound concentration 1000.0 nM
Sequence of BDNF/NT-3 growth factors receptor (Homo sapiens) (Q16620 32-822 limits assumed): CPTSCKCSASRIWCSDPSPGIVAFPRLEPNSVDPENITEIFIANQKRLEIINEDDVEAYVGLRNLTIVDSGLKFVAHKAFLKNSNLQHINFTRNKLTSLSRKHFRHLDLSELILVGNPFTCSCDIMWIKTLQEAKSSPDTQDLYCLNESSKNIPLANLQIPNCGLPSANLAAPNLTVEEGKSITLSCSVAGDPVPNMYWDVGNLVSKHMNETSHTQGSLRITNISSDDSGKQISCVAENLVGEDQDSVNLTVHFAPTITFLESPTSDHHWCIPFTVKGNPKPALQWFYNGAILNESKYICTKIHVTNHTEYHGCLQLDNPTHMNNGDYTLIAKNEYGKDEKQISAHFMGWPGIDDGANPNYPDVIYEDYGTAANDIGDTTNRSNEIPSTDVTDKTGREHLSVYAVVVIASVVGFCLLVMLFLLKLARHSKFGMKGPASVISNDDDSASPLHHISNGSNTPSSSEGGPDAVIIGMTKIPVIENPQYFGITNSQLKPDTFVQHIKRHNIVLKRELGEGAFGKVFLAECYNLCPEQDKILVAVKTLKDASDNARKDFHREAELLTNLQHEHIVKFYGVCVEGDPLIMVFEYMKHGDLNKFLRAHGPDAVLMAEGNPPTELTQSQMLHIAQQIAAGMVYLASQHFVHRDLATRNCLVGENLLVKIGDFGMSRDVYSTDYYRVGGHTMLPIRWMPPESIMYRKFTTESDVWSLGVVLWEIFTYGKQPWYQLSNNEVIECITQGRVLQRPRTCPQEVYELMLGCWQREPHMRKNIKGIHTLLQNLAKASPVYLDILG

[16] = biological target: Mitogen-activated protein kinase kinase kinase 11 (Homo sapiens) (UniProt Q16584); conditions: Compound concentration 1000.0 nM
[17] = biological target: Serine/threonine-protein kinase Sgk3 (Homo sapiens) (UniProt Q96BR1); conditions: Compound concentration 1000.0 nM
[18] = biological target: Mitogen-activated protein kinase 7 (Homo sapiens) (UniProt Q13164); conditions: Compound concentration 1000.0 nM
[19] = test system: Receptor-type tyrosine-protein kinase FLT3 (Homo sapiens), P36888 [D835V]; conditions: Compound concentration 1000.0 nM
[20] = biological target: Serine/threonine-protein kinase MRCK beta (Homo sapiens) (UniProt Q9Y5S2); conditions: Compound concentration 1000.0 nM
[21] = biological target: Fibroblast growth factor receptor 1 (Homo sapiens) (UniProt P11362); conditions: Compound concentration 1000.0 nM
Sequence of Fibroblast growth factor receptor 1 (Homo sapiens) (P11362 22-822 limits assumed): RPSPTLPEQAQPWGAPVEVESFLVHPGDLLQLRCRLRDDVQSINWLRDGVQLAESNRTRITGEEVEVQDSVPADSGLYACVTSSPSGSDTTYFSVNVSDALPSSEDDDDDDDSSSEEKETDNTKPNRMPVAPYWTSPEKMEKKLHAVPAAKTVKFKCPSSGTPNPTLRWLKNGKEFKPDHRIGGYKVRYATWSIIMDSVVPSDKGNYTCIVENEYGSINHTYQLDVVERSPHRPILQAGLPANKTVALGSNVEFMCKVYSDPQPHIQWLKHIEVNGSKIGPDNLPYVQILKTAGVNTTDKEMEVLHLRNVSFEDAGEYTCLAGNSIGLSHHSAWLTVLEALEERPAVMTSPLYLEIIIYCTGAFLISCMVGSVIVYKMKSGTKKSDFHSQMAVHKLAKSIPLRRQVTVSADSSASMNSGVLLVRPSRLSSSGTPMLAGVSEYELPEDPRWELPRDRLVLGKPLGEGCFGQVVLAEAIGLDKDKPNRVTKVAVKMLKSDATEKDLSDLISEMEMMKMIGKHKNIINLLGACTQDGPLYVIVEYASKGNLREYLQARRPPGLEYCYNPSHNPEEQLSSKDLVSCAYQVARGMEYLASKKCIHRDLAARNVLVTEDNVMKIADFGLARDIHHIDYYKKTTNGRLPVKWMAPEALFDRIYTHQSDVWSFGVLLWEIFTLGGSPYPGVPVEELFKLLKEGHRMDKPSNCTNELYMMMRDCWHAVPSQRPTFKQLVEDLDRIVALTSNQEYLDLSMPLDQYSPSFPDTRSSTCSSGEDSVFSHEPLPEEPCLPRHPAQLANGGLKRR

[22] = biological target: Serine/threonine-protein kinase Nek10 (Homo sapiens) (UniProt Q6ZWH5); conditions: Compound concentration 1000.0 nM
Sequence of Serine/threonine-protein kinase Nek10 (Homo sapiens) (Q6ZWH5 whole entry): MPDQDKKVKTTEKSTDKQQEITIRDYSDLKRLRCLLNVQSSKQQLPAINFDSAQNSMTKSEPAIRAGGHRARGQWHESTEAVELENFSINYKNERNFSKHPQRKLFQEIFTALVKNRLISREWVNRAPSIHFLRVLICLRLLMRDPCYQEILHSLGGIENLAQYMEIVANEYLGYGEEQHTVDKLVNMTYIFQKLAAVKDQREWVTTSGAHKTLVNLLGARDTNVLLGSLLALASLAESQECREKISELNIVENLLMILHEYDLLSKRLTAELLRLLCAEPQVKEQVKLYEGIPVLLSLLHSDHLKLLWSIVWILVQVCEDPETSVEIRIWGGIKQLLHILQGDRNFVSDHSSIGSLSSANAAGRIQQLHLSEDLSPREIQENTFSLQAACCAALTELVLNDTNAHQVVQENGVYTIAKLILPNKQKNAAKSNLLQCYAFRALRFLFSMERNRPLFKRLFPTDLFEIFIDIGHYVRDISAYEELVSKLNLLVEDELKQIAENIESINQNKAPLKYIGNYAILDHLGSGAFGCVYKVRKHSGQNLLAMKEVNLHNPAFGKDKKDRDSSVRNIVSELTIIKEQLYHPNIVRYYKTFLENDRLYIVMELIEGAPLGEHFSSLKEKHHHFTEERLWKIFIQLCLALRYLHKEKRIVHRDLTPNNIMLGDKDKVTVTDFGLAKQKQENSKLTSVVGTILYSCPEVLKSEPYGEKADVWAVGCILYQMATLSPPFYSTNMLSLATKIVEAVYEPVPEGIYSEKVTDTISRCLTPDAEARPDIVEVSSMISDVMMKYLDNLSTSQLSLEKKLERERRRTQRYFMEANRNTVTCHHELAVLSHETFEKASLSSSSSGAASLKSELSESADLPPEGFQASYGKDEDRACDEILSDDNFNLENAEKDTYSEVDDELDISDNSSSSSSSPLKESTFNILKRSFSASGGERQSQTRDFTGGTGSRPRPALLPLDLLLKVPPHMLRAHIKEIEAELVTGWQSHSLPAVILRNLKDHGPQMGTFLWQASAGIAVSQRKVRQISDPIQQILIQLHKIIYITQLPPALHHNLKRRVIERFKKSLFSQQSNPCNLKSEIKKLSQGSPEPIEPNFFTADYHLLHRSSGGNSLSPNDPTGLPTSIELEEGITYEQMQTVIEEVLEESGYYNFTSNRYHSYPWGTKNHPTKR

[23] = biological target: Aurora kinase A (Homo sapiens) (UniProt O14965); conditions: Compound concentration 1000.0 nM
Sequence of Aurora kinase A (Homo sapiens) (O14965 whole entry): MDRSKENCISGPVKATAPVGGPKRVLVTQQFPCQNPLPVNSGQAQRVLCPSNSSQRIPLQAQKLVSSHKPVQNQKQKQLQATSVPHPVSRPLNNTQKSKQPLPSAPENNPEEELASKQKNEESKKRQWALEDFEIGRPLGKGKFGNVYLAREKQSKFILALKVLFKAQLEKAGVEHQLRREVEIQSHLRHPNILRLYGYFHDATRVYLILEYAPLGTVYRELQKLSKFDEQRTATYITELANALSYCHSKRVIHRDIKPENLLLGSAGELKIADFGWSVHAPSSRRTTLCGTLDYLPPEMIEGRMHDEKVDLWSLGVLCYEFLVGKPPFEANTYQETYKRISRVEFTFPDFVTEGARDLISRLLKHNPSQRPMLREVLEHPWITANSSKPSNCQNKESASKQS

[24] = biological target: Ephrin type-A receptor 8 (Homo sapiens) (UniProt P29322); conditions: Compound concentration 1000.0 nM
[25] = test system: Phosphatidylinositol 4,5-bisphosphate 3-kinase catalytic subunit alpha isoform (Homo sapiens), P42336 [I800L]; conditions: Compound concentration 1000.0 nM
Sequence of Phosphatidylinositol 4,5-bisphosphate 3-kinase catalytic subunit alpha isoform (Homo sapiens), P42336 [I800L] (P42336 whole entry I800L, canonical isoform): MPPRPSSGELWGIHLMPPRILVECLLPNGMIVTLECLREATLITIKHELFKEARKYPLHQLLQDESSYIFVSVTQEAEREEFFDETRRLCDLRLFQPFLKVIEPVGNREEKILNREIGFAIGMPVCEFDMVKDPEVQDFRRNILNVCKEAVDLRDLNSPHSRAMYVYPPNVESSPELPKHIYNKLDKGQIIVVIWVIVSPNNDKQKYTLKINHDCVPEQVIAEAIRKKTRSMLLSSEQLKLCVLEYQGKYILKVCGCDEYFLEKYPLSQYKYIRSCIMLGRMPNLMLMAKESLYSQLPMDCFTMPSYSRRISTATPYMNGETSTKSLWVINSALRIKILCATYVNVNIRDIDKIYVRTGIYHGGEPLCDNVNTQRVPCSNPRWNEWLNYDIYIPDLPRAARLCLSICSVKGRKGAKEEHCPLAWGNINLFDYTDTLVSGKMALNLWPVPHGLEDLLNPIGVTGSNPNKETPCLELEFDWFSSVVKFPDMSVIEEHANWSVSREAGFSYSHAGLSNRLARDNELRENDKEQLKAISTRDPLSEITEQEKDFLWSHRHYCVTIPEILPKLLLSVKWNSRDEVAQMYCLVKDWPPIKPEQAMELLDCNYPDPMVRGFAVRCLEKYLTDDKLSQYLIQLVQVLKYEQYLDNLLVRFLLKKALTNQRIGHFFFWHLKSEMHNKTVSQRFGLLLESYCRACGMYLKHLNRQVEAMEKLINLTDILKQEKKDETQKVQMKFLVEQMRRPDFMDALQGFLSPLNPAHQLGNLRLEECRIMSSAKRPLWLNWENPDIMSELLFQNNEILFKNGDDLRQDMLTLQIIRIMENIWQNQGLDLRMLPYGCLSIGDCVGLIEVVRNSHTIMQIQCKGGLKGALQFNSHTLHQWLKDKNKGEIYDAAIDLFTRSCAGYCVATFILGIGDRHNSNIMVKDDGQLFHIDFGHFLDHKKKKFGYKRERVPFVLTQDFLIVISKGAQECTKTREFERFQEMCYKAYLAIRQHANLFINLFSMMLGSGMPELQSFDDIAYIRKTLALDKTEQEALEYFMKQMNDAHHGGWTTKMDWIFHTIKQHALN

[26] = biological target: cAMP-dependent protein kinase catalytic subunit beta (Homo sapiens) (UniProt P22694); conditions: Compound concentration 1000.0 nM
[27] = biological target: Serine/threonine-protein kinase PAK 2 (Homo sapiens) (UniProt Q13177); conditions: Compound concentration 1000.0 nM
[28] = biological target: Ephrin type-A receptor 1 (Homo sapiens) (UniProt P21709); conditions: Compound concentration 1000.0 nM
[29] = biological target: Serine/threonine-protein kinase 36 (Homo sapiens) (UniProt Q9NRP7); conditions: Compound concentration 1000.0 nM
[30] = biological target: Cyclin-dependent kinase 3 (Homo sapiens) (UniProt Q00526); conditions: Compound concentration 1000.0 nM
Sequence of Cyclin-dependent kinase 3 (Homo sapiens) (Q00526 whole entry, looked up): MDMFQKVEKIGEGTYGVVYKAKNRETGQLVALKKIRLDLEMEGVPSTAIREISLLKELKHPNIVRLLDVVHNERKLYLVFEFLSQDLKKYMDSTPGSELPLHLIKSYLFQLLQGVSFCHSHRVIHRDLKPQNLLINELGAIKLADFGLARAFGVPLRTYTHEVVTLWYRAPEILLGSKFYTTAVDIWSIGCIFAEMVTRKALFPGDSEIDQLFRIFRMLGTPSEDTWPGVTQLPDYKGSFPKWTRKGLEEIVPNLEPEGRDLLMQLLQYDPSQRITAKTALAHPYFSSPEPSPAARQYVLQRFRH

[31] = biological target: Inhibitor of nuclear factor kappa-B kinase subunit epsilon (Homo sapiens) (UniProt Q14164); conditions: Compound concentration 1000.0 nM
[32] = biological target: Ephrin type-A receptor 6 (Homo sapiens) (UniProt Q9UF33); conditions: Compound concentration 1000.0 nM
[33] = biological target: Serine/threonine-protein kinase Nek1 (Homo sapiens) (UniProt Q96PY6); conditions: Compound concentration 1000.0 nM
[34] = biological target: Serine/threonine-protein kinase ICK (Homo sapiens) (UniProt Q9UPZ9); conditions: Compound concentration 1000.0 nM
[35] = biological target: Phosphatidylinositol 4,5-bisphosphate 3-kinase catalytic subunit delta isoform (Homo sapiens) (UniProt O00329); conditions: Compound concentration 1000.0 nM
[36] = biological target: STE20/SPS1-related proline-alanine-rich protein kinase (Homo sapiens) (UniProt Q9UEW8); conditions: Compound concentration 1000.0 nM
[37] = biological target: Serine/threonine-protein kinase NIM1 (Homo sapiens) (UniProt Q8IY84); conditions: Compound concentration 1000.0 nM
[38] = biological target: Bone morphogenetic protein receptor type-2 (Homo sapiens) (UniProt Q13873); conditions: Compound concentration 1000.0 nM
[39] = biological target: TGF-beta receptor type-1 (Homo sapiens) (UniProt P36897); conditions: Compound concentration 1000.0 nM

CN(C)CC#Cc1ccc(OCCCc2sc(N3CCc4cccc(C(=O)Nc5nc6ccccc6s5)c4C3)nc2C(=O)O)c(F)c1 [A-1155463]
inactive: residual activity [1] 100% | residual activity [2] 100% | residual activity [3] 76% | residual activity [4] 86% | residual activity [5] 94% | residual activity [6] 100% | residual activity [7] 86% | residual activity [8] 100% | residual activity [9] 100% | residual activity [10] 100% | residual activity [11] 88% | inhibition [12] 17.2% | residual activity [13] 61% | residual activity [14] 100% | residual activity [15] 100% | residual activity [16] 100% | residual activity [17] 100% | residual activity [18] 99% | residual activity [19] 100% | residual activity [20] 87% | residual activity [21] 100% | residual activity [22] 87% | residual activity [23] 92% | residual activity [24] 100% | residual activity [25] 75% | residual activity [26] 100% | residual activity [27] 93% | residual activity [28] 100% | residual activity [29] 99% | residual activity [30] 68% | residual activity [31] 100% | residual activity [32] 100% | residual activity [33] 100% | residual activity [34] 100% | residual activity [35] 100% | residual activity [36] 100% | residual activity [37] 100% | residual activity [38] 100% | residual activity [39] 100%
